Tests used:
[1] = tested on: NF-κB p65 in LPS-stimulated RAW264.7 cells; assay: NF-κB nuclear translocation, immunocytochemistry; assay type: cell-based, mouse; settings: pre-treatment 2 h prior to LPS 1 µg/mL for 16 h
Protocol: RAW264.7 cells cultured on round cover slips coated with poly-L-lysine were treated with triterpenoids (1 or 3 µg/mL) 2 h prior to LPS treatment, followed by LPS (1 µg/mL) for 16 h. The cells were washed with 1 x phosphate buffered saline (PBS) and fixed with 4% paraformaldehyde for 30 min. After washing the fixed cells with PBS, the cells were permeabilized with a blocking buffer (1% normal goat serum and 0.2% Triton X-100 in PBS) for 30 min at room temperature, and were incubated with an anti-NF-κB p65 antibody (1:200 dilution, Cell Signaling Technology, Danvers, MA, USA) at 4 °C overnight. After three washes in PBS, the cells were incubated in the dark for 1 h with the mixture of FITC-conjugated anti-rabbit IgG fluorescent secondary antibody diluted at 1:500 in PBS. Finally, the cells were stained with 2 µg/mL Hoechst for nuclei staining. The cells were washed with PBS, wet-mounted on glass slides, and observed using a confocal laser-scanning microscope (Olympus, Tokyo, Japan). The negative control (NC) was analyzed by omitting the primary antibody.

[2] = molecular target: T1, Human neutrophil elastase (HNE, EC 3.4.21.37) (Homo sapiens, UniProt P08246); assay: Human neutrophil elastase inhibition, spectrophotometric, MeOSuc-AAPV-pNA substrate; assay type: biochemical
T1 construct: purchased Sigma-Aldrich
T1 sequence (P08246 30-267): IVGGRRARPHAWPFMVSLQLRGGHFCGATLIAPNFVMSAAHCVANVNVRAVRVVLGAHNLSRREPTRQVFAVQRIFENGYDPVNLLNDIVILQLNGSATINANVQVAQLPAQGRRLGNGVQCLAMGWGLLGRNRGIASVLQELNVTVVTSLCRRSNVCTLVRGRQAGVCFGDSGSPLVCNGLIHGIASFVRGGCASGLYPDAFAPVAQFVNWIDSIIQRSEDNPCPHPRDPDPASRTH
Protocol: Human neutrophil elastase (EC 3. 4. 21. 37) (Sigma-Aldrich, St. Louis, MO, USA) activity was measured in accordance with the previous description with subtle modification, by observing the formation of p-nitroaniline after the hydrolysis of N-methoxysuccinyl-Ala-Ala-Pro-Val-p-nitro anilide at 405 nm. The inhibitors were dissolved in dimethyl sulfoxide (DMSO) and diluted to a few concentrations. In brief, in a 96-well plate, 10 µL of inhibitor solution and 40 µL of 1.5 mM of MeOSuc-AAPV-pNA were added as a substrate in the 0.02 mM Tris-HCl buffer solutions (pH 8.0). Then, 20 µL of human neutrophil elastase (0.2 unit/mL) was added to the mixture. The test mixtures were incubated and mixed for 15 min at room temperature and then screened at 405 nm for 30 min every 30 s.
Activity (%) = 100 [1/(1 + ([I]/IC50))].(1)
The modalities of HNE inhibition were estimated in experiments using particular concentrations of the substrates and inhibitors, respectively. The Michaelis–Menten constant (Km) and maximal velocity (Vmax) were investigated by a Lineweaver–Burk plot. The KI, dissociation constants for inhibitor binding to the free enzyme were calculated using a Dixon plot. Equations (2)–(4) are representatives for deriving the aforementioned parameters. (2) 1/V=Km/Vmax(1+[I]/Ki)×1/S+1/Vmax (3) Slop=Km/KiVmax[I]+Km/Vmax (4) Intercept=1/KiVmax[I]+1/Vmax.

[3] = molecular target: T2, Human neutrophil elastase (HNE) (Homo sapiens, UniProt P08246); assay: Fluorescence quenching binding affinity to HNE; settings: inhibitor 7.8–31.2 µM
T2 construct: purchased Sigma-Aldrich
T2 sequence (P08246 30-267): T1 sequence (P08246 30-267)
Protocol: To measure fluorescence from the HNE enzyme, 10 μL of 0.01 unit/mL enzyme solution with 180 μL of Tris-HCl buffer (0.02 mM) was accurately added into the 96-well black immunoplates. Then, 10 μL of incremental concentrations (7.8–31.2 μΜ) of inhibitors were added into each well. All fluorescence spectra were measured from 280 to 400 nm with emission slits regulated to 2.0 nm, and the excitation wavelength was 260 nm. The Stern–Volmer quenching constant (KSV) was calculated using Equation (5). All experiments were conducted in triplicate, and the mean values were calculated. (5) […]=1+KSV[Q], where F0 and F are the fluorescence intensities in the absence and presence of quencher (Q). KSV is the Stern–Volmer quenching constant [LM^−1]. For static quenching, the correlation between the fluorescence intensity and the concentration of quencher for the series of reactions can be estimated by Equation (6). (6) log[(F0−F)/F]=logKA+nlog[Q]f.
F0 and F are the fluorescence intensities in the absence and presence of inhibitor; KA is the binding constant; n is the number of binding sites of the enzyme; Qf is the concentration of inhibitor.

## CC(C)(C)c1ccc(S(=O)(=O)/C=C/C#N)cc1 [Bay 11-7085, reference compound]
[1]
  NF-κB translocation to the nucleus (immunocytochemical staining): suppressed

## COC1OC(C=C(C)C=CC=C(C)CCC=C(C)C)CC12C(CCCO)C(=C(C)C=O)CCC2(C)O (centres unmarked) [Compound 3, iridobelamal B]
[2]; Dixon plots, read-out: Ki (inhibition constant)
  Ki: 6.2 µM
[2]; Lineweaver-Burk and Dixon plots, reversibility from activity vs enzyme concentration plots
  Type of Inhibition: noncompetitive inhibitor
[2]; compared with compounds 1 and 2
  fold better HNE inhibition than monocyclic compounds (1 and 2): 2–3 fold
[2]; concentration that caused 50% enzyme activity loss, three sets of experiments
  IC50: 6.8 ± 0.3 µM
[3]
  n (number of binding sites of the enzyme): 0.9727
[3]; read-out: KA (association constant of the complex of enzyme and quencher) (converted)
  Kd: 13.5 µM
[3]; λEx 260 nm, λEm 280–400 nm
  KSV (Stern-Volmer quenching constant): 67640 L/mol

From paper PMC8588536, “Iridal-Type Triterpenoids Displaying Human Neutrophil Elastase Inhibition and Anti-Inflammatory Effects from Belamcanda chinensis” (Molecules, 2021)
